From ChEMBL document CHEMBL1159203, “Agelastatins C and D, new pentacyclic bromopyrroles from the sponge Cymbastela sp., and potent arthropod toxicity of (-)-agelastatin A” (J Nat Prod, 1998)

Tested on: Artemia franciscana
Test: Toxicity against Artemia franciscana nauplii larvae
Format: organism-based
Settings: in vivo

CN1C(=O)N[C@@]2(O)[C@@H]3NC(=O)c4ccc(Br)n4[C@@H]3C[C@@]12O
LC50: 220 ppm
